Measured values taken from patent US9546157B2, “Asymmetric piperidinyl-substituted ureas as medicines” (Helsinn Healthcare SA, priority 2014, dated 2017).

Experiments:
[1] = target: T1, GHSR1a (Homo sapiens, UniProt Q92847); assay: Calcium FLIPR assay, GHSR-1a agonism; format: cell-based; parameters: Emax: unit not given here; conditions: HEK293/GHSR1a cells
T1 construct: expressed in transfected cells; host or cells: HEK293
Procedure, shortened: (§1)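 Relative fluorescence read-out (FLIPR) of intracellular calcium in HEK293/GHSR1a cells. For antagonist mode, compound and 10 nM ghrelin were co-added at t=20 sec, and inhibition of the ghrelin response over 2 minutes gave IC50. Agonist mode: compound alone at t=20 sec, response tracked 2 minutes; EC50 from dose-response.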

[2] = target: T1, GHSR1a; assay: Calcium FLIPR assay, GHSR-1a antagonism (reduction of ghrelin response); format: cell-based; conditions: HEK293/GHSR1a cells, ghrelin 10 nM
Procedure, shortened: as §1

T1 sequence (Q92847 whole entry): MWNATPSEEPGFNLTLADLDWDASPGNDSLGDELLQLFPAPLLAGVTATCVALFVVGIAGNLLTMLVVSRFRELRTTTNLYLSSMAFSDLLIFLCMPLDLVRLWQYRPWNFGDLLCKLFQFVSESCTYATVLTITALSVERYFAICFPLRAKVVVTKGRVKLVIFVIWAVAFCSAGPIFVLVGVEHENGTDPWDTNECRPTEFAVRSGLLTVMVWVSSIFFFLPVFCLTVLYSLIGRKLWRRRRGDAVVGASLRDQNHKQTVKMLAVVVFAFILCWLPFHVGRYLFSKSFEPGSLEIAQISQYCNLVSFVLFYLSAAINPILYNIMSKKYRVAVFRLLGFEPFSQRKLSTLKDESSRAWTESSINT

Row | SMILES | EC50 [1] [nM] | IC50 [2] [nM] | Emax [1]
1 | CN1CCC(N(C)C(=O)NC(CC2CC2)c2ccc(-c3cnccn3)c(Cl)c2Cl)C1 (stereo not shown) [Compound H0874, 3-(2-cyclopropyl-1-(2,3-dichloro-4-(pyrazin-2-yl)phenyl)ethyl)-1-methyl-1-(1-methylpyrrolidin-3-yl)urea] | > 30000 | 115 | 
2 | CC(NC(=O)N(C)C1CCN(C)CC1)c1ccc(NC(=O)c2cccs2)c(Cl)c1Cl (stereo not shown) [Compound H0772, N-(2,3-dichloro-4-(1-(3-methyl-3-(1-methylpiperidin-4-yl)ureido)ethyl)phenyl)thiophene-2-carboxamide] | 7 | 3 | 3569
3 | CC[C@@H](NC(=O)N(C)C1CCN(C)CC1)c1ccc(-c2cnccn2)c(Cl)c1Cl (single isomer, unassigned) [Compound H0859] | > 30000 | 2200 | 
4 | CC(NC(=O)N(C)C1CCN(C)CC1)c1ccc(-c2cnc(N(C)C)nc2)c(Cl)c1Cl (stereo not shown) [Compound H0804, 3-(1-(2,3-dichloro-4-(2-(dimethylamino)pyrimidin-5-yl)phenyl)ethyl)-1-methyl-1-(1-methylpiperidin-4-yl)urea] | 263 | 375 | 2740
5 | C#Cc1cncc(-c2ccc(C(C)NC(=O)N(C)C3CCN(C)CC3)c(Cl)c2Cl)c1 (stereo not shown) [Compound H0710, 3-(1-(2,3-dichloro-4-(5-ethynylpyridin-3-yl)phenyl)ethyl)-1-methyl-1-(1-methylpiperidin-4-yl)urea] | 395 | 275 | 1621
6 | CCON(C(=O)NC(C)c1ccc(-c2cnccn2)c(Cl)c1Cl)C1CCN(C)CC1 (stereo not shown) [Compound H0750, 3-(1-(2,3-dichloro-4-(pyrazin-2-yl)phenyl)ethyl)-1-ethoxy-1-(1-methylpiperidin-4-yl)urea] | > 30000 | 177 | 
7 | CC(NC(=O)N(C)C1CCN(C)CC1)c1ccc(-c2cnc(Cl)nc2)c(Cl)c1Cl (stereo not shown) [Compound H0801, 3-(1-(2,3-dichloro-4-(2-chloropyrimidin-5-yl)phenyl)ethyl)-1-methyl-1-(1-methylpiperidin-4-yl)urea] | 45 | 20 | 3915
8 | CC(NC(=O)N(C)C1CCN(C)CC1)c1ccc(-c2cnc(C#N)nc2)c(Cl)c1Cl (stereo not shown) [Compound H0802, 3-(1-(2,3-dichloro-4-(2-cyanopyrimidin-5-yl)phenyl)ethyl)-1-methyl-1-(1-methylpiperidin-4-yl)urea] | 153 | 99 | 4149
9 | CC(NC(=O)N(C)C1CCN(C)CC1)c1ccc(C#Cc2ccc(C(N)=O)s2)c(Cl)c1Cl (stereo not shown) [Compound H0776, 5-((2,3-dichloro-4-(1-(3-methyl-3-(1-methylpiperidin-4-yl)ureido)ethyl)phenyl)ethynyl)thiophene-2-carboxamide] | > 4000 | 120 | 
10 | CC(NC(=O)N(C)C1CCN(C)CC1)c1ccc(-c2cnc(NC(=O)C3CC3)nc2)c(Cl)c1Cl (stereo not shown) [Compound H0807, N-(5-(2,3-dichloro-4-(1-(3-methyl-3-(1-methylpiperidin-4-yl)ureido)ethyl)phenyl)pyrimidin-2-yl)cyclopropanecarboxamide] | 24 | 14 | 3669
11 | CC(NC(=O)N(C)C1CCN(C)CC1)c1ccc2c(NC3CC3)noc2c1 (stereo not shown) [Compound H0787, 3-(1-(3-(cyclopropylamino)benzo[d]isoxazol-6-yl)ethyl)-1-methyl-1-(1-methylpiperidin-4-yl)urea] | 3000 | 12000 | 
12 | CN1CCC(N(C)C(=O)NC(C)(C#N)c2ccc(-c3cncnc3)c(Cl)c2Cl)CC1 (stereo not shown) [Compound H0703, 3-(1-cyano-1-(2,3-dichloro-4-(pyrimidin-5-yl)phenyl)ethyl)-1-methyl-1-(1-methylpiperidin-4-yl)urea] | > 30000 | 695 | 
13 | CCc1ccc(C(C)NC(=O)N(C)C2CCN(C)CC2)c(Cl)c1Cl (stereo not shown) [Compound H0628, 3-(1-(2,3-dichloro-4-ethylphenyl)ethyl)-1-methyl-1-(1-methylpiperidin-4-yl)urea] | 101 | 59 | 4433
14 | CC#Cc1ccc(C(C)NC(=O)N(C)C2CCN(C)CC2)c(Cl)c1Cl (stereo not shown) [Compound H0832, 3-(1-(2,3-dichloro-4-(prop-1-yn-1-yl)phenyl)ethyl)-1-methyl-1-(1-methylpiperidin-4-yl)urea] | > 30000 | 11 | 
15 | CC(NC(=O)N(C)C1CCN(C)CC1)c1ccc(-c2ccc(C#N)nc2)c(Cl)c1Cl (stereo not shown) [Compound H0616, 3-(1-(2,3-dichloro-4-(6-cyanopyridin-3-yl)phenyl)ethyl)-1-methyl-1-(1-methylpiperidin-4-yl)urea] | 580 | 132 | 
16 | CC(NC(=O)N(C)C1CCN(C)CC1)c1ccc(-c2ccc(C(=O)N(C)C)s2)c(Cl)c1Cl (stereo not shown) [Compound H0726, 5-(2,3-dichloro-4-(1-(3-methyl-3-(1-methylpiperidin-4-yl)ureido)ethyl)phenyl)-N,N-dimethylthiophene-2-carboxamide] | > 30000 | 456 | 

Row | SMILES | EC50 [1] [nM] | IC50 [2] [nM] | Emax [1]
17 | CN1CCC(N(C)C(=O)NC(CO)c2ccc(-c3cnccn3)c(Cl)c2Cl)CC1 (stereo not shown) [Compound H0924, 3-(1-(2,3-dichloro-4-(pyrazin-2-yl)phenyl)-2-hydroxyethyl)-1-methyl-1-(1-methylpiperidin-4-yl)urea] | > 30000 | 300 | 
18 | COc1cncc(-c2ccc(C(C)NC(=O)N(C)C3CCN(C)CC3)c(Cl)c2Cl)n1 (stereo not shown) [Compound H0738, 3-(1-(2,3-dichloro-4-(6-methoxypyrazin-2-yl)phenyl)ethyl)-1-methyl-1-(1-methylpiperidin-4-yl)urea] | > 30000 | 696 | 
19 | COc1cccc(-c2ccc(C(C)NC(=O)N(C)C3CCN(C)CC3)c(Cl)c2Cl)c1 (stereo not shown) [Compound H0606, 3-(1-(2,3-dichloro-3′-methoxy-[1,1′-biphenyl]-4-yl)ethyl)-1-methyl-1-(1-methylpiperidin-4-yl)urea] | 31 | 24 | 2336
20 | Cc1cncc(-c2ccc(C(C)NC(=O)N(C)C3CCN(C)CC3)c(Cl)c2Cl)n1 (stereo not shown) [Compound H0815, 3-(1-(2,3-dichloro-4-(6-methylpyrazin-2-yl)phenyl)ethyl)-1-methyl-1-(1-methylpiperidin-4-yl)urea] | > 30000 | 176 | 
21 | CC(C)C#Cc1ccc(C(C)NC(=O)N(C)C2CCN(C)CC2)c(Cl)c1Cl (stereo not shown) [Compound H0852, 3-(1-(2,3-dichloro-4-(3-methylbut-1-yn-1-yl)phenyl)ethyl)-1-methyl-1-(1-methylpiperidin-4-yl)urea] | 18 | 22 | 1683
22 | Cc1cc(-c2ccc(C(C)NC(=O)N(C)C3CCN(C)CC3)c(Cl)c2Cl)ncn1 (stereo not shown) [Compound H0808, 3-(1-(2,3-dichloro-4-(6-methylpyrimidin-4-yl)phenyl)ethyl)-1-methyl-1-(1-methylpiperidin-4-yl)urea] | 90 | 674 | 1494
23 | Cc1nccnc1-c1ccc(C(C)NC(=O)N(C)C2CCN(C)CC2)c(Cl)c1Cl (stereo not shown) [Compound H0831, 3-(1-(2,3-dichloro-4-(3-methylpyrazin-2-yl)phenyl)ethyl)-1-methyl-1-(1-methylpiperidin-4-yl)urea] | > 30000 | 1200 | 
24 | CC(NC(=O)N(C)C1CCN(C)CC1)c1ccc(C#C[Si](C)(C)C)c(Cl)c1Cl (stereo not shown) [Compound H0602, 3-(1-(2,3-dichloro-4-((trimethylsilyl)ethynyl)phenyl)ethyl)-1-methyl-1-(1-methylpiperidin-4-yl)urea] | > 30000 | 8 | 
25 | CC(NC(=O)N(C)C1CCN(C)CC1)c1ccc(-c2cnc(N3CCN(C)CC3)cn2)c(Cl)c1Cl (stereo not shown) [Compound H0822, 3-(1-(2,3-dichloro-4-(5-(4-methylpiperazin-1-yl)pyrazin-2-yl)phenyl)ethyl)-1-methyl-1-(1-methylpiperidin-4-yl)urea] | > 30000 | 1200 | 
26 | CC(NC(=O)N(C)C1CCN(C)CC1)c1ccc(-c2nc(N3CCOCC3)nc(N3CCOCC3)n2)c(Cl)c1Cl (stereo not shown) [Compound H0796, 3-(1-(2,3-dichloro-4-(4,6-dimorpholino-1,3,5-triazin-2-yl)phenyl)ethyl)-1-methyl-1-(1-methylpiperidin-4-yl)urea] | 3000 | 826 | 1671
27 | C=Cc1cncc(-c2ccc(C(C)NC(=O)N(C)C3CCN(C)CC3)c(Cl)c2Cl)c1 (stereo not shown) [Compound H0706, 3-(1-(2,3-dichloro-4-(5-vinylpyridin-3-yl)phenyl)ethyl)-1-methyl-1-(1-methylpiperidin-4-yl)urea] | 91 | 116 | 2111
28 | CC(NC(=O)N(C)C1CCN(C)CC1)c1ccc(-c2cnc(N)s2)c(Cl)c1Cl (stereo not shown) [Compound H0792, 3-(1-(4-(2-aminothiazol-5-yl)-2,3-dichlorophenyl)ethyl)-1-methyl-1-(1-methylpiperidin-4-yl)urea] | 7 | 16 | 1096
29 | CC(NC(=O)N(C)C1CCN(C)CC1)c1ccc(-c2sccc2C(N)=O)c(Cl)c1Cl (stereo not shown) [Compound H0774, 2-(2,3-dichloro-4-(1-(3-methyl-3-(1-methylpiperidin-4-yl)ureido)ethyl)phenyl)thiophene-3-carboxamide] | > 30000 | 3400 | 
30 | CCN1CCN(c2ncc(-c3ccc(C(C)NC(=O)N(C)C4CCN(C)CC4)c(Cl)c3Cl)cn2)CC1=O (stereo not shown) [Compound H0814, 3-(1-(2,3-dichloro-4-(2-(4-ethyl-3-oxopiperazin-1-yl)pyrimidin-5-yl)phenyl)ethyl)-1-methyl-1-(1-methylpiperidin-4-yl)urea] | 15 | 926 | 1097
31 | COC(=O)C(NC(=O)N(C)C1CCN(C)CC1)c1ccc(-c2cnccn2)c(Cl)c1Cl (stereo not shown) [Compound H0922, methyl 2-(2,3-dichloro-4-(pyrazin-2-yl)phenyl)-2-(3-methyl-3-(1-methylpiperidin-4-yl)ureido)acetate] | > 30000 | 2800 | 
